Results: patent publication US10874670B2, “Substituted fused heteroaromatic compounds as kinase inhibitors and the use thereof” (IMPACT THERAPEUTICS, INC., priority 2017, dated 2020)

Tests used:
[1] = tested on: human colon cancer cell SW620; test: MTT assay, growth of SW620 cells, compounds combined with CPT-11; type: cell-based; details: Homo sapiens, SW-620, 120 h; combined with CPT-11 (205 nM medium), 5 days, MTT
Experimental: Inhibitory effects of N,N-dimethyl-3-(4-(1-(tetrahydro-2H-pyran-4-yl)-[1,2,4]triazolo[4,3-a]quinoxalin-8-yl)phenoxy)propan-1-amine and its Analogues Combined with CPT-11 on the Growth of Human Colon Cancer Cell SW620 were Determined by MTT Assay
(§1) SW620 cells were digested by trypsinase, centrifuged at 800 rpm for 5 minutes, the supernatant was discarded, resuspended with fresh medium (RPMI 1640 medium+10% FBS) and counted. The cells were seeded into 96-well cell culture plate with appropriate cell density and incubated overnight in a 37° C. 5% CO2 incubator. The stock solutions of the tested compound and the reference compound AZD0156 were serially diluted to 8 concentrations by DMSO at the ratios of 1:3 and 1:10, respectively, the first concentration was 10 μM or 1 μM, and the last concentration was negative control of DMSO (0 μM, the final concentration of DMSO was 1%). 5 μL of each concentration was added to 120 μL of medium (25 times diluted) and mixed by shaking. The overnight cells were taken and the culture medium was removed, 195 μL of fresh medium containing 205 nM CPT-11 was added to each well, and 5 μL of diluted medium containing the corresponding concentration of the tested sample was added respectively, and the culture plate was then placed in the 5% CO2 cell culture incubator at 37° C. for 5 days. After removing the original solution, 100 pt of fresh serum-free DMEM medium containing MTT (0.5 mg/mL) was added to each well, the culture was continued. After 4 hours, the original solution was removed, 100 μL of DMSO was added into each well, the 96-well plates were shaken away from light for 10 minutes and placed in a multi-function reader to read the absorbance at the wavelength of 552/630/690 nm. GraphPad Prism 6.0 was used to analyze the data. The inhibitory activity of compounds on cell proliferation was plotted based on cell viability and compound concentration. The IC50 value was fitted by a sigmoidal dose response curve equation Y=100/(1+10^(Log C−Log IC50)), where C was the concentration of compound.
Table 3 summarizes the inhibitory effects of compounds combined with CPT-11 on the growth of human colon cancer cell SW620 (IC50).

[2] = tested on: human breast cancer cell MDA-MB-468; test: MTT assay, growth of MDA-MB-468 cells; type: cell-based; details: 7 days, MTT
Experimental: Inhibitory Effects of N,N-dimethyl-3-(4-(1-(tetrahydro-2H-pyran-4-yl)-[1,2,4]triazolo[4,3-a]quinoxalin-8-yl)phenoxy)propan-1-amine and its Analogues on the Growth of Human Breast Cancer Cell MDA-MB-468 were Determined by MTT Assay
as §1, with “MDA-MB-468 cells” for “SW620 cells”, “1:10, respectively:” for “1:10, respectively,”, “was 100” for “was 10”, “medium” for “medium containing 205 nM CPT-11”, “for 7 days (On the fourth day, the medium containing drugs was removed and fresh medium containing drugs was added for continuous cultivation).” for “for 5 days.”, “100 μL” for “100 pt”
Table 4 summarizes the inhibitory effects of compounds on the growth of human breast cancer cell MDA-MB-468 (IC50).

[3] = molecular target: ATM enzyme (human) (Homo sapiens, UniProt Q13315); test: ATM kinase assay (HTRF, GST-cMyc-p53 substrate); type: biochemical; details: 0.5 h, read-out: Inh (%) of ATM kinase; for inhibition at 1 µM: C 1 μm (final concentration of compound); for inhibition at 0.01 µM: C 0.01 μm (final concentration of compound); for inhibition at 0.1 µM: C 0.1 μm (final concentration of compound)
ATM enzyme (human), sequence (Q13315 whole entry): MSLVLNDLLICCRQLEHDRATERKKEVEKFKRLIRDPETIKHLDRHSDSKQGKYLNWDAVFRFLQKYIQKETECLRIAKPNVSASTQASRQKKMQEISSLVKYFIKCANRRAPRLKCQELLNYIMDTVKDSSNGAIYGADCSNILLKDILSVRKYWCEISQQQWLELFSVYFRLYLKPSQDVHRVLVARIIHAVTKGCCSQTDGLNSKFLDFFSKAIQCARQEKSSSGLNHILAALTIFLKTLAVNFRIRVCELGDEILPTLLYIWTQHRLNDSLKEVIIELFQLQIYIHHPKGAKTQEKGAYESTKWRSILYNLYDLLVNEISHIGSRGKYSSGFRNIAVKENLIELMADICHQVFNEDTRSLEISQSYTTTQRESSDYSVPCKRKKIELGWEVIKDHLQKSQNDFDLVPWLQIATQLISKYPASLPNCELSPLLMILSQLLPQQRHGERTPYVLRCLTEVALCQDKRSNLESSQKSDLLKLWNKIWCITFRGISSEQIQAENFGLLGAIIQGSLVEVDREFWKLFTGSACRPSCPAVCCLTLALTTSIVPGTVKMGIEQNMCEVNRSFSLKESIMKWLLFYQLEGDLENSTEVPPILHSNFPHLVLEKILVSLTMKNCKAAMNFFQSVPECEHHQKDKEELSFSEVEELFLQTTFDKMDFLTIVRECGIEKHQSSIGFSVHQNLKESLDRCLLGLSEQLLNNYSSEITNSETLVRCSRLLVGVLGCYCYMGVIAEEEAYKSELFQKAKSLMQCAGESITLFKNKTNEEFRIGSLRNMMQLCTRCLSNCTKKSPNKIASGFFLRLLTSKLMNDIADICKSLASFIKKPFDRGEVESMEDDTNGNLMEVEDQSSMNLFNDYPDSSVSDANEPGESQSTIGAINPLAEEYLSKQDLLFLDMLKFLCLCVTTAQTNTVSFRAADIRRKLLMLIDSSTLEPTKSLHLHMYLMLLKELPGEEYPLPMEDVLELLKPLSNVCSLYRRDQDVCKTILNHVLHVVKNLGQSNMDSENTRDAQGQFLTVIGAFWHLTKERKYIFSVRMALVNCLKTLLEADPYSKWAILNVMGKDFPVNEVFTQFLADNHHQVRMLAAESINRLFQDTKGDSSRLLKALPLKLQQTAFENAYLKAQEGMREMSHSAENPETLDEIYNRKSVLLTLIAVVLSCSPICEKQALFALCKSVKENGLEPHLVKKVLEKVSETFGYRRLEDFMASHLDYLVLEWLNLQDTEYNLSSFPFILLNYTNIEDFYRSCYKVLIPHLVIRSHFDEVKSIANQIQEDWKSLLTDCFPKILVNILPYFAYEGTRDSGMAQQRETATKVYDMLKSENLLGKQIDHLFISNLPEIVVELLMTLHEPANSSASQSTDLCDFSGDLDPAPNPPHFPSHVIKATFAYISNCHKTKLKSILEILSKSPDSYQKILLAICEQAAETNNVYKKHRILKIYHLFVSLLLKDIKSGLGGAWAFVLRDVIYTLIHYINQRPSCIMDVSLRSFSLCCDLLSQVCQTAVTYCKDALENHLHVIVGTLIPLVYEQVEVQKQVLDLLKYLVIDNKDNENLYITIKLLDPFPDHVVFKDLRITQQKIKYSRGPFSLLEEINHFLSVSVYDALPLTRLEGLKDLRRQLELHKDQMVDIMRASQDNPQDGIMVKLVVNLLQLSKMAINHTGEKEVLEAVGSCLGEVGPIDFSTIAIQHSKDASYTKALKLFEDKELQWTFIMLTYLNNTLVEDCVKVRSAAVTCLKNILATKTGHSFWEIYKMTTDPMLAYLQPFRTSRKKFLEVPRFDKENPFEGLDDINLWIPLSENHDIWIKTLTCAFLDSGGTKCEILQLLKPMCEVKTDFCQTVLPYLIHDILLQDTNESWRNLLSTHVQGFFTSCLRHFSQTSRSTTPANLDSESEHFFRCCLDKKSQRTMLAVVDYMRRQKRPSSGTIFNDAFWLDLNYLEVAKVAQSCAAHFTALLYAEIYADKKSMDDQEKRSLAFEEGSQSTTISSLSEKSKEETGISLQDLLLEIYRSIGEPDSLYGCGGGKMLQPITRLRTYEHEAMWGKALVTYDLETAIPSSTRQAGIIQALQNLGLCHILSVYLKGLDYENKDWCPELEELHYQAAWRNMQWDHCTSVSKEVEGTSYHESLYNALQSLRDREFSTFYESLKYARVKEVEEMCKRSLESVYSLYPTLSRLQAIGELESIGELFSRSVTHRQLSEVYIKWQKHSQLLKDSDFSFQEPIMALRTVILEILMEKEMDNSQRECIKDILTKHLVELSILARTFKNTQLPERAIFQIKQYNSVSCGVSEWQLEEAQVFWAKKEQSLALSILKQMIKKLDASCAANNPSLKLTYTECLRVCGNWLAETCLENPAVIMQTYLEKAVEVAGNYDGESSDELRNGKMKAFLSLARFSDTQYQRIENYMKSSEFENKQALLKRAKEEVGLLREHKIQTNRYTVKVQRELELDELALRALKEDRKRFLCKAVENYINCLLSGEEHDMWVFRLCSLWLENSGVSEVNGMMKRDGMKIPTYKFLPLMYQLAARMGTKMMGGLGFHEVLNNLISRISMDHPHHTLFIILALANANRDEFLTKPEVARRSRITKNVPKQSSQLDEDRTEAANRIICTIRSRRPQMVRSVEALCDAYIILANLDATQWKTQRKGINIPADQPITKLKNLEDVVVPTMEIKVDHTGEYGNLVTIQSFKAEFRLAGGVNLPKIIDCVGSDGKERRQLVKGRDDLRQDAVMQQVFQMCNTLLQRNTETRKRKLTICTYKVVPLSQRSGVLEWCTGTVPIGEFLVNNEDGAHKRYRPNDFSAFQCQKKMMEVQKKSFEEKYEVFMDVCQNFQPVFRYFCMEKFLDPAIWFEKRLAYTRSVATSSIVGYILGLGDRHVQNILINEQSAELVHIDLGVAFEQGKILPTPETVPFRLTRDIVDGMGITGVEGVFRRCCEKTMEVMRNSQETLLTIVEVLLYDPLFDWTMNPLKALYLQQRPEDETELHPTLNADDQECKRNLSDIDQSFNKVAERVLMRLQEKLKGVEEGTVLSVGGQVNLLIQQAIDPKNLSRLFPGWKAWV
Experimental: In Vitro Inhibition of ATM by N,N-dimethyl-3-(4-(1-(tetrahydro-2H-pyran-4-yl)-[1,2,4]triazolo[4,3-a]quinoxalin-8-yl)phenoxy)propan-1-amine and its Analogues was Determined by ATM Kinase Assay
The reaction was initiated by the addition of a Mg/ATP mixture and incubation for 30 minutes at room temperature, the reaction was quenched by the addition of a stop solution containing EDTA. Finally, the detection buffer containing the d2-labeled anti-GST monoclonal antibody and the europium-labeled anti-phospho p53 (Ser15) antibody was added. The plate was then read in time resolved fluorescence mode and the homogeneous time resolved fluorescence (HTRF) signal was determined according to the equation: HTRF=10000×(Em665nm/Em620nm). Each compound sample was repeated in duplicate. The experiment negative control was all components except of the ATM enzyme and the positive control contained all components. All reactions were quenched by adding EDTA.
ATM kinase inhibition was detected by using the method described above. The curve equation for calculating IC50 value is as follows:
[formula] • wherein, C is the concentration of compound and D is the slope factor.

[4] = Homo sapiens, MDA-MB-468, 168 h

Structure (SMILES) | IC50 [1] [nM] | IC50 [2, 4] [nM] | inhibition at 1 µM [3] [%] | IC50 [2] [nM] | inhibition at 0.01 µM [3] [%] | inhibition at 0.1 µM [3] [%] | inhibition at 10 µM ([3]; C 10 μm (final concentration of compound)) [%]
c1ccc(-c2ccc3ncc4nnc(C5CCOCC5)n4c3c2)cc1 [Example 39, 8-phenyl-1-(tetrahydro-2H-pyran-4-yl)-[1,2,4]triazolo[4,3-a]quinoxaline] | > 100000 |  | 62 |  |  |  | 
CN(C)CCOc1ccc(-c2ccc3ncc4nnc(C5CCOCC5)n4c3c2)cc1 [Example 9, N,N-dimethyl-2-(4-(1-(tetrahydro-2H-pyran-4-yl)-[1,2,4]triazolo[4,3-a]quinoxalin-8-yl)phenoxy)ethan-1-amine] | 1940 |  | 72 |  |  |  | 
CN(C)C1CCN(c2ccc(-c3ccc4ncc5nnc(N6CCC(N(C)C)CC6)n5c4n3)cc2)CC1 [Example 90, 1-(2-(4-(4-(dimethylamino)piperidin-1-yl)phenyl)pyrido[3,2-e][1,2,4]triazolo[4,3-a]pyrazin-9-yl)-N,N-dimethylpiperidin-4-amine] | 981 | > 10000 |  |  |  |  | 
CN(C)CCCOc1ccc(-c2cc3c(cn2)ncc2nnc(C4CCOCC4)n23)cc1 [Example 69, N,N-dimethyl-3-(4-(1-(tetrahydro-2H-pyran-4-yl)pyrido[3,4-e][1,2,4]triazolo[4,3-a]pyrazin-8-yl)phenoxy)propan-1-amine] |  |  |  | > 10000 |  |  | 
CN(C)C1CCN(c2ccc(-c3ccc4ncc5nnc(CN6CCOCC6)n5c4c3)cc2)CC1 [Example 65, N,N-dimethyl-1-(4-(1-(morpholinomethyl)-[1,2,4]triazolo[4,3-a]quinoxalin-8-yl)phenyl)piperidin-4-amine] | 402 |  | 100 |  | 37 | 80 | 
CN(C)CCCOc1ncc(-c2ccc3ncc4nnc(C5CCOCC5)n4c3c2)cn1 [Example 6, N,N-dimethyl-3-((5-(1-(tetrahydro-2H-pyran-4-yl)-[1,2,4]triazolo[4,3-a]quinoxalin-8-yl)pyrimidin-2-yl)oxy)propan-1-amine] | > 100000 |  | 57 |  |  |  | 
CN1CCN(c2ccc(-c3ccc4ncc5nnc(C6CCOCC6)n5c4c3)cc2)CC1 [Example 13, 8-(4-(4-methylpiperazin-1-yl)phenyl)-1-(tetrahydro-2H-pyran-4-yl)-[1,2,4]triazolo[4,3-a]quinoxaline] | > 100000 |  | 93 |  | 8 | 49 | 
CCNC1CCN(c2ccc(-c3ccc4ncc5nnc(C6CCOCC6)n5c4c3)cc2)CC1 [Example 43, N-ethyl-1-(4-(1-(tetrahydro-2H-pyran-4-yl)-[1,2,4]triazolo[4,3-a]quinoxalin-8-yl)phenyl)piperidin-4-amine] | 357 |  | 100 |  | 47 | 89 | 
C[C@@H]1CN(c2ccc(-c3ccc4ncc5nnc(C6CCOCC6)n5c4c3)cc2)C[C@H](C)N1C [Example 14, 1-(tetrahydro-2H-pyran-4-yl)-8-(4-((3S,5R)-3,4,5-trimethylpiperazin-1-yl)phenyl)-[1,2,4]triazolo[4,3-a]quinoxaline] | > 100000 |  | 96 |  | 20 | 52 | 
CN(C)CCCOc1ccc(-c2cnc3ncc4nnc(C5CCOCC5)n4c3c2)cn1 [Example 1, N,N-dimethyl-3-((5-(1-(tetrahydro-2H-pyran-4-yl)pyrido[2,3-e][1,2,4]triazolo[4,3-a]pyrazin-8-yl)pyridin-2-yl)oxy)propan-1-amine] | > 100000 |  |  |  |  |  | 90
NC1CCN(c2ccc(-c3ccc4ncc5nnc(C6CCOCC6)n5c4c3)cc2)CC1 [Example 41, 1-(4-(1-(tetrahydro-2H-pyran-4-yl)-[1,2,4]triazolo[4,3-a]quinoxalin-8-yl)phenyl)piperidin-4-amine] | 456 |  | 99 |  | 33 | 81 | 

The remaining lines, values ahead:

IC50 [1] [nM] | IC50 [2, 4] [nM] | inhibition at 1 µM [3] [%] | IC50 [2] [nM] | inhibition at 0.01 µM [3] [%] | inhibition at 0.1 µM [3] [%] | inhibition at 10 µM ([3]; C 10 μm (final concentration of compound)) [%] | Structure (SMILES)
148 | 73.4 |  |  |  |  |  | C[C@@H]1CN(c2nnc3cnc4ccc(-c5ccc(OCCCN(C)C)c(C(F)(F)F)c5)nc4n23)C[C@H](C)N1C [Example 83, N,N-dimethyl-3-(2-(trifluoromethyl)-4-(9-((3S,5R)-3,4,5-trimethylpiperazin-1-yl)pyrido[3,2-e][1,2,4]triazolo[4,3-a]pyrazin-2-yl)phenoxy)propan-1-amine]
138 | 201 |  |  |  |  |  | C[C@@H]1CN(c2nnc3cnc4ccc(-c5ccc(OCCCN(C)C)c(F)c5)nc4n23)C[C@H](C)N1C [Example 81, 3-(2-fluoro-4-(9-((3S,5R)-3,4,5-trimethylpiperazin-1-yl)pyrido[3,2-e][1,2,4]triazolo[4,3-a]pyrazin-2-yl)phenoxy)-N,N-dimethylpropan-1-amine]
189 | 200 |  |  |  |  |  | C[C@@H]1CN(c2nnc3cnc4ccc(-c5ccc(OCCCN(C)C)c(Cl)c5)nc4n23)C[C@H](C)N1C [Example 82, 3-(2-chloro-4-(9-((3S,5R)-3,4,5-trimethylpiperazin-1-yl)pyrido[3,2-e][1,2,4]triazolo[4,3-a]pyrazin-2-yl)phenoxy)-N,N-dimethylpropan-1-amine]
14.4 | 6.61 |  |  |  |  |  | C[C@@H]1CN(c2nnc3cnc4ccc(-c5ccc(N6CCC(N(C)C)CC6)c(F)c5)cc4n23)C[C@H](C)N1C [Example 59, 1-(2-fluoro-4-(1-((3S,5R)-3,4,5-trimethylpiperazin-1-yl)-[1,2,4]triazolo[4,3-a]quinoxalin-8-yl)phenyl)-N,N-dimethylpiperidin-4-amine]
41.3 | 22.2 |  |  |  |  |  | C[C@@H]1CN(c2nnc3cnc4ccc(-c5ccc(N6CCC(N(C)C)CC6)c(F)c5)nc4n23)C[C@H](C)N1C [Example 85, 1-(2-fluoro-4-(9-((3S,5R)-3,4,5-trimethylpiperazin-1-yl)pyrido[3,2-e][1,2,4]triazolo[4,3-a]pyrazin-2-yl)phenyl)-N,N-dimethylpiperidin-4-amine]
164 | 271 |  |  |  |  |  | C[C@@H]1CN(c2nnc3cnc4ccc(-c5ccc(OCCCN(C)C)cc5)nc4n23)C[C@H](C)N1C [Example 80, N,N-dimethyl-3-(4-(9-((3S,5R)-3,4,5-trimethylpiperazin-1-yl)pyrido[3,2-e][1,2,4]triazolo[4,3-a]pyrazin-2-yl)phenoxy)propan-1-amine]
